The source made the active and inactive calls. The rule behind the calls is not given here.
How the values were obtained:
[1] = test system: Respiratory syncytial virus; test: Antiviral activity against RSV A2 infected in Normal human bronchial epithelial cells incubated for 3 days by ONE-Glo luciferase assay; assay type: functional, organism-based; conditions: A2, Epithelial cell, 72 h
[2] = test system: Respiratory syncytial virus; test: Antiviral activity against RSV A2 infected in human HEp-2 cells incubated for 4 days by Cell Titer Glo assay; assay type: functional, organism-based; conditions: A2, HEp-2, 96 h
[3] = Cytotoxicity against human Hep-2 cells incubated for 4 to 5 days by Cell Titer Glo assay; assay type: toxicity, cell-based; conditions: time 4-5 day
[4] = Distribution coefficient, log D of compound measured after 30 mins by HPLC/UV analysis; assay type: physicochemical; conditions: octanol/water
[5] = Prodrug conversion in Normal human bronchial epithelial cells assessed as ((2R,3S,4R,5S)-5-(4-aminopyrrolo[2,1-f][1,2,4]triazin-7-yl)-2-cyano-3,4-dihydroxytetrahydrofuran-2-yl)methyl tetrahydrogen triphosphate formation measured per million cells at 10 uM incubated for 2 hrs by LC-MS/MS analysis; assay type: ADME, cell-based; conditions: epithelial cell
[6] = Prodrug conversion in Normal human bronchial epithelial cells assessed as ((2R,3S,4R,5S)-5-(4-aminopyrrolo[2,1-f][1,2,4]triazin-7-yl)-2-cyano-3,4-dihydroxytetrahydrofuran-2-yl)methyl tetrahydrogen triphosphate formation measured per million cells at 1 uM measured after 48 hrs by LC-MS/MS analysis; assay type: ADME, cell-based; conditions: epithelial cell
[7] = Cytotoxicity against Normal human bronchial epithelial cells; assay type: toxicity, cell-based, Epithelial cell
[8] = Selectivity index, ratio of CC50 for Normal human bronchial epithelial cells to EC50 for RSV A2 infected in Normal human bronchial epithelial cells; assay type: toxicity; conditions: read-out: Ratio CC50/EC50
[9] = test system: Respiratory syncytial virus; test: Antiviral activity against RSV A2 infected in human airway epithelium transwell culture assessed as decrease in viral RNA level by measuring log10 reduction in median viral load at 0.25 uM pretreated at apical side for 3 hrs followed by compound washout and subsequent viral infection at apical side for 3 hrs followed by removal of virus and recurrent addition of compound on day 1 and 2 at basolateral side measured on day 3 by RT-qPCR analysis; assay type: functional; conditions: time 75 hrs
[10] = test system: Respiratory syncytial virus; test: Antiviral activity against RSV A2 infected in human airway epithelium transwell culture assessed as decrease in viral RNA level by measuring log10 reduction in median viral load at 0.05 uM pretreated at apical side for 3 hrs followed by compound washout and subsequent viral infection at apical side for 3 hrs followed by removal of virus and recurrent addition of compound on day 0 at apical side measured on day 3 by RT-qPCR analysis; assay type: functional; conditions: time 75 hrs
Human metapneumovirus = test: Anti-viral activity against hMPV CAN99-81 (A1 genotype) infected in rhesus monkey LLC-MK2 cells incubated for 90 mins; assay type: functional, organism-based; conditions: LLC-MK2, 1.5 h
[11] = Cytotoxicity against rhesus monkey LLC-MK2 cells incubated for 5 days by MTS assay; assay type: toxicity, cell-based, Macaca mulatta; conditions: time 5 day
[12] = Cytotoxicity against human A549 cells expressing hACE2 incubated for 28 hrs by Cell Titer Glo assay; assay type: toxicity, cell-based
[13] = test system: Respiratory syncytial virus; test: Antiviral activity against Fluc-fused RSV A2 infected in Normal human bronchial epithelial cells incubated for 3 days by ONE Glo luciferase assay; assay type: functional, organism-based; conditions: A2, Epithelial cell, 72 h
[14] = test system: Respiratory syncytial virus; test: Antiviral activity against Fluc-fused RSV A2 infected in D-HBE-COPD cells incubated for 3 days by ONE Glo luciferase assay; assay type: functional, organism-based; conditions: human respiratory syncytial virus, 72 h
[15] = Prodrug conversion in D-HBE-COPD cells assessed as ((2R,3S,4R,5S)-5-(4-aminopyrrolo[2,1-f][1,2,4]triazin-7-yl)-2-cyano-3,4-dihydroxytetrahydrofuran-2-yl)methyl tetrahydrogen triphosphate formation measured per million cells at 1 uM measured after 48 hrs by LC-MS/MS analysis; assay type: ADME, cell-based; conditions: human
[16] = Prodrug conversion in human H1-HeLa cells assessed as ((2R,3S,4R,5S)-5-(4-aminopyrrolo[2,1-f][1,2,4]triazin-7-yl)-2-cyano-3,4-dihydroxytetrahydrofuran-2-yl)methyl tetrahydrogen triphosphate formation measured per million cells at 0.2 uM measured after 48 hrs by LC-MS/MS analysis; assay type: ADME, cell-based
[17] = test system: Respiratory syncytial virus; test: Antiviral activity against RSV A2 infected in D-HBE-COPD cells assessed as inhibition of intracellular virus replication; assay type: functional, organism-based; conditions: human respiratory syncytial virus
[18] = test system: Respiratory syncytial virus; test: Antiviral activity against RSV A2 infected in H1-HeLa cells assessed as inhibition of intracellular virus replication; assay type: functional, organism-based; conditions: human respiratory syncytial virus
[19] = Drug metabolism in Cynomolgous monkey assessed as half life of (2R,3S,4R,5S)-5-(4-aminopyrrolo[2,1-f][1,2,4]triazin-7-yl)-3,4-dihydroxy-2-(hydroxymethyl)tetrahydrofuran-2-carbonitrile metabolite at 5 mg/kg, iv measured after 30 mins by LC-MS/MS analysis; assay type: ADME, organism-based, Macaca fascicularis; conditions: cynomolgus monkey, in vivo, 0.5 h
[20] = Drug metabolism in Cynomolgous monkey assessed as Cmax of (2R,3S,4R,5S)-5-(4-aminopyrrolo[2,1-f][1,2,4]triazin-7-yl)-3,4-dihydroxy-2-(hydroxymethyl)tetrahydrofuran-2-carbonitrile metabolite at lung-deposited dose of 4 mg/kg, IT measured after 24 hrs by LC-MS/MS analysis; assay type: ADME, organism-based, Macaca fascicularis; conditions: cynomolgus monkey, in vivo, other
[21] = Drug metabolism in Cynomolgous monkey assessed as AUC (0 to 24 hrs) of (2R,3S,4R,5S)-5-(4-aminopyrrolo[2,1-f][1,2,4]triazin-7-yl)-3,4-dihydroxy-2-(hydroxymethyl)tetrahydrofuran-2-carbonitrile metabolite at lung-deposited dose of 4 mg/kg, IT measured after 24 hrs by LC-MS/MS analysis; assay type: ADME, organism-based, Macaca fascicularis; conditions: cynomolgus monkey, in vivo, other
[22] = Cmax in African green monkey at lung-deposited dose of 5.9 mg/kg, IT measured after 24 hrs by LC-MS/MS analysis; assay type: ADME, organism-based; conditions: chlorocebus aethiops, in vivo
[23] = Drug metabolism in African green monkey assessed as Cmax of (2R,3S,4R,5S)-5-(4-aminopyrrolo[2,1-f][1,2,4]triazin-7-yl)-3,4-dihydroxy-2-(hydroxymethyl)tetrahydrofuran-2-carbonitrile metabolite at lung-deposited dose of 5.9 mg/kg, IT measured after 24 hrs by LC-MS/MS analysis; assay type: ADME, organism-based; conditions: chlorocebus aethiops, in vivo, other
[24] = test system: Respiratory syncytial virus; test: Antiviral activity against RSV infected in African green monkey assessed as log10 reduction in viral load in BAL at lung-deposited dose of 1.6 to 7.6 mg/kg, IT qd measured after 5 days by RT-qPCR analysis; assay type: functional; conditions: dose 1.6-7.6 mg/kg, time 5 day
[25] = test system: Respiratory syncytial virus; test: Antiviral activity against RSV infected in African green monkey assessed as reduction in viral load in BAL at lung-deposited dose of 1.6 to 7.6 mg/kg, IT qd for 6 days measured on day 11 by RT-qPCR analysis; assay type: functional, organism-based; conditions: dose 1.6-7.6 mg/kg, time 11.0 day
[26] = test system: Respiratory syncytial virus; test: Antiviral activity against RSV infected in African green monkey assessed as reduction in viral load in nasal swabs at lung-deposited dose of 1.6 to 7.6 mg/kg, IT qd for 6 days; assay type: functional, organism-based; conditions: dose 1.6-7.6 mg/kg, time 6.0 day
[27] = test system: Respiratory syncytial virus; test: Antiviral activity against RSV infected in African green monkey assessed as reduction in viral replication in BAL at lung-deposited dose of 1.6 to 7.6 mg/kg, IT qd for 6 days measured for 15 days by RT-qPCR analysis relative to control; assay type: functional; parameters: scale not given: the % may be the effect or the level left; conditions: dose 1.6-7.6 mg/kg, time 15 day, at 1.6 to 7.6 mg/kg

`COC(=O)[C@H](C)N[P@](=O)(OC[C@@]1(C#N)O[C@@H](c2ccc3c(N)ncnn23)[C@H](OC(=O)C(C)C)[C@@H]1OC(=O)C(C)C)Oc1ccccc1` showed an EC50 [1] of 15 nM, an EC50 [2] of 46 nM and a CC50 [3] of 22700 nM. The logD at 0.5 h [4] was 3, the Drug metabolism [5] was 916 pM and the Drug metabolism [6] was 88.8 pM. The CC50 [7] was 8300 nM, the selectivity ratio [8] was 640 and the Activity [9] was 2.5 log10/ml. For the same compound, the Activity [10] was 0.2 log10/ml, the EC50 (Human metapneumovirus) was 210 nM and the CC50 at 120 h [11] was > 2000 nM. For the same compound, the CC50 at 28 h [12] was 21100 nM, the EC50 [13] was < 3 nM and the EC50 [14] was < 7 nM. For the same compound, the Drug metabolism [15] was 85 pM, the amount per cells [16] was 0.84 pmol/10^6 cells and the IC50 [17] was < 85 nM. It also gave an IC50 [18] of 84 nM, a t1/2 [19] of 8.71 h and a Cmax [20] of 140 nM. It also gave an AUC [21] of 2.55 µM·h, a Cmax [22] of 610 nM and a Cmax [23] of 220 nM. For the same compound, the Activity [24] was 3.6 log10/ml, the Activity [25] was “Active” and the Activity [26] was “inactive”. For the same compound, the Activity [27] was >99.99%.
